Reference: PMC11956013, “Structure–Activity Relationships and Evaluation of 2-(Heteroaryl-cycloalkyl)-1H-indoles as Tauopathy Positron Emission Tomography Radiotracers” (Journal of Medicinal Chemistry, 2025)
Values joined by “and” are separate entries in the source; they are usually repeats but may differ in a detail not shown here. Equal values may be shown once. Read-outs that look alike come from different tables or passages of the source.

Legend:
ATPase (Na+/K+) = experiment: Eurofins panel: ATPase (Na+/K+) enzymatic activity; format: biochemical; conditions: reference compound, read-out: Concurrent IC50, Enzymatic activity
D2L (h) = D2L (h) (Homo sapiens, UniProt P14416); conditions: Specific binding; reference compound
CYP2C19 = CYP2C19 (Homo sapiens, UniProt P33261); conditions: In Vitro Metabolism; HLM, Omeprazole substrate; reference compound
[1] = biological target: T1, aggregated tau (mixed 3R/4R-tau) in AD brain tissue homogenates (Homo sapiens, UniProt P10636); experiment: In vitro competition (Ki) assay versus [^3H]7, AD brain tissue homogenate; format: binding; conditions: radioligand [^3H]7 ∼1 nM
Target sequence in this assay (P10636 623-695 limits assumed): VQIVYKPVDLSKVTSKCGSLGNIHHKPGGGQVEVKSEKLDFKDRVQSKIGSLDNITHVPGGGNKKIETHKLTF

[2] = biological target: T2, aggregated tau (4R-tau) in PSP brain tissue homogenates (Homo sapiens, UniProt P10636); experiment: In vitro competition (Ki) assay versus [^3H]7, PSP brain tissue homogenate; format: binding; conditions: radioligand [^3H]7 ∼1 nM
T2 construct: from tissue

[3] = biological target: T1, aggregated tau (mixed 3R/4R-tau) in AD brain tissue homogenates; experiment: In vitro competition (Ki) assay versus [^3H]8, AD brain tissue homogenate; format: binding; conditions: radioligand [^3H]8 ∼1 nM
Target sequence in this assay (P10636 623-708 limits assumed): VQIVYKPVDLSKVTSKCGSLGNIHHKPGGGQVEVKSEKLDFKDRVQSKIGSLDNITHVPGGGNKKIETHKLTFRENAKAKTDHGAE

[4] = biological target: T2, aggregated tau (4R-tau) in PSP brain tissue homogenates; experiment: In vitro competition (Ki) assay versus [^3H]8, PSP brain tissue homogenate; format: binding; conditions: radioligand [^3H]8 ∼1 nM
[5] = biological target: T1, aggregated tau (mixed 3R/4R-tau) in AD brain tissue homogenates; experiment: In vitro competition (Ki) assay versus [^3H]3, AD brain tissue homogenate; format: binding; conditions: radioligand [^3H]3 ∼1 nM
Target sequence in this assay (P10636 623-695 limits assumed): as the sequence (P10636 623-695 limits assumed) above

[6] = biological target: T2, aggregated tau (4R-tau) in PSP brain tissue homogenates; experiment: In vitro competition (Ki) assay versus [^3H]3, PSP brain tissue homogenate; format: binding; conditions: radioligand [^3H]3 ∼1 nM
[7] = biological target: T3, aggregated tau (4R-tau) in CBD brain tissue homogenates (Homo sapiens, UniProt P10636); experiment: biochemical
[8] = biological target: T3, aggregated tau (4R-tau) in CBD brain tissue homogenates; experiment: In vitro competition (Ki) assay versus [^3H]3, CBD brain tissue homogenate; format: binding; parameters: from tissue; host or cells: post-mortem human CBD brain, middle frontal gyrus homogenate; conditions: radioligand [^3H]3 ∼1 nM
M3 (h) = M3 (h) (Homo sapiens, UniProt P20309); conditions: Specific binding; reference compound
M4 (h) = M4 (h) (Homo sapiens, UniProt P08173); experiment: M4 (h) (antagonist radioligand), Eurofins assay 96; conditions: Specific binding; reference compound
M5 (h) = biological target: T4, M5 (h) (Homo sapiens, UniProt P08912); experiment: M5 (h) (antagonist radioligand), Eurofins assay 97; conditions: Specific binding, reference compound
T4 sequence (P08912 1-532): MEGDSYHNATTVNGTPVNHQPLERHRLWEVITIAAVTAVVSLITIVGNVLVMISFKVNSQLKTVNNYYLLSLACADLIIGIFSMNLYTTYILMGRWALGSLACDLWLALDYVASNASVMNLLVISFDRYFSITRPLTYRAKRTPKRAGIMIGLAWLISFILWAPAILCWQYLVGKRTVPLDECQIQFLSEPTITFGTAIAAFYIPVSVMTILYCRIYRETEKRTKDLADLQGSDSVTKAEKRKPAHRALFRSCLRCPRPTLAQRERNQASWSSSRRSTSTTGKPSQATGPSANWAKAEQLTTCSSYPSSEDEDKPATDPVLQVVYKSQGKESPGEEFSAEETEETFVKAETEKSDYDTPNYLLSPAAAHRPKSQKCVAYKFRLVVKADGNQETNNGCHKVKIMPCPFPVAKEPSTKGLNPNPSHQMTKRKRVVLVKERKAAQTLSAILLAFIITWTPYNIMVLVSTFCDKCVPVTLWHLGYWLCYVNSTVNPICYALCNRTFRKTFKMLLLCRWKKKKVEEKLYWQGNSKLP

[9] = biological target: Ca2+ channel (L, dihydropyridine site) (Rattus norvegicus, UniProt P22002); experiment: Eurofins panel: Ca2+ channel (L, dihydropyridine site) (antagonist radioligand); conditions: reference compound
MT1 (ML1A) (h) = MT1 (ML1A) (h) (Homo sapiens, UniProt P48039); experiment: Eurofins panel: MT1 (ML1A) (h) (agonist radioligand); format: binding; parameters: purchased Eurofins (CNS SafetyScreen panel, contract assay) assay 1538; conditions: reference compound
[10] = biological target: COMT (catechol- O-methyl transferase); experiment: COMT (catechol- O-methyl transferase), Eurofins assay 457; format: biochemical; conditions: Enzymatic activity; reference compound; read-out: Concurrent IC50
GR (h) = GR (h) (Homo sapiens, UniProt P04150); conditions: Specific binding; reference compound
D1 (h) = D1 (h) (Homo sapiens, UniProt P21728); conditions: Specific binding; reference compound
M2 (h) = M2 (h) (Homo sapiens, UniProt P08172); conditions: Specific binding; reference compound
[11] = biological target: Non-Selective Rat Glycine Ion Channel (Rattus norvegicus, UniProt P07727); experiment: Non-Selective Rat Glycine Ion Channel Strychnine Mass Spectrometry Binding Assay, Cerep
CYP2D6 = CYP2D6 (Homo sapiens, UniProt P10635); conditions: In Vitro Metabolism; HLM, Dextromethorphan substrate; reference compound
[12] = biological target: T1, aggregated tau (mixed 3R/4R-tau) in AD brain tissue homogenates; experiment: In vitro competition (Ki) assay versus [^3H]75, AD brain tissue homogenate; format: binding; conditions: AD brain tissue homogenate; radioligand [^3H]75; n = 3, mean ± SD
Target sequence in this assay (P10636 623-695 limits assumed): as the sequence (P10636 623-695 limits assumed) above

[13] = biological target: T2, aggregated tau (4R-tau) in PSP brain tissue homogenates; experiment: In vitro competition (Ki) assay versus [^3H]75, PSP brain tissue homogenate; format: binding; conditions: PSP brain tissue homogenate; radioligand [^3H]75; n = 3, mean ± SD
[14] = biological target: T5, aggregated tau (3R-tau) in PiD brain tissue homogenates (Homo sapiens, UniProt P10636); experiment: In vitro competition (Ki) assay versus [^3H]75, PiD brain tissue homogenate; format: binding; conditions: PiD brain tissue homogenate; radioligand [^3H]75; n = 3, mean ± SD
T5 construct: or only 3R-tau aggregates (PiD middle frontal gyrus); from tissue; host or cells: post-mortem human PiD brain, middle frontal gyrus homogenate

[15] = biological target: T3, aggregated tau (4R-tau) in CBD brain tissue homogenates; conditions: read-out: Ki versus [^3H]7, CBD tissue; CBD brain tissue homogenate; radioligand [^3H]7 ∼1 nM
[16] = biological target: T3, aggregated tau (4R-tau) in CBD brain tissue homogenates; conditions: read-out: Ki versus [^3H]8, CBD tissue; CBD brain tissue homogenate; radioligand [^3H]8 ∼1 nM
[17] = biological target: T1, aggregated tau (mixed 3R/4R-tau) in AD brain tissue homogenates; parameters: method as in earlier work; conditions: AD brain tissue homogenate; radioligand [^3H]3; read-out: Ki versus [^3H]3, AD tissue; cited from earlier work
Target sequence in this assay (P10636 623-695 limits assumed): as the sequence (P10636 623-695 limits assumed) above

[18] = biological target: T2, aggregated tau (4R-tau) in PSP brain tissue homogenates; parameters: method as in earlier work; conditions: PSP brain tissue homogenate; radioligand [^3H]3; read-out: Ki versus [^3H]3, PSP tissue; cited from earlier work
[19] = biological target: T3, aggregated tau (4R-tau) in CBD brain tissue homogenates; experiment: In vitro competition (Ki) assay versus [^3H]75, CBD brain tissue homogenate; format: binding; parameters: from tissue; host or cells: post-mortem human CBD brain, middle frontal gyrus homogenate; conditions: CBD brain tissue homogenate; radioligand [^3H]75; n = 3, mean ± SD
[20] = biological target: T3, aggregated tau (4R-tau) in CBD brain tissue homogenates; parameters: from tissue; host or cells: post-mortem human CBD brain, middle frontal gyrus homogenate; method as in earlier work; conditions: CBD brain tissue homogenate; radioligand [^3H]3; read-out: Ki versus [^3H]3, CBD tissue; cited from earlier work
[21] = biological target: Adenosine Guinea Pig Transporter (Cavia porcellus, UniProt H0V4R7); experiment: Adenosine Guinea Pig Transporter Mass Spectrometry Binding (Antagonist Ligand) Assay, Cerep; conditions: reference compound
CYP1A2 = CYP1A2 (Homo sapiens, UniProt P05177); conditions: In Vitro Metabolism; HLM, Tacrine substrate; reference compound

T3 sequence (P10636 1-441 isoform P10636-8): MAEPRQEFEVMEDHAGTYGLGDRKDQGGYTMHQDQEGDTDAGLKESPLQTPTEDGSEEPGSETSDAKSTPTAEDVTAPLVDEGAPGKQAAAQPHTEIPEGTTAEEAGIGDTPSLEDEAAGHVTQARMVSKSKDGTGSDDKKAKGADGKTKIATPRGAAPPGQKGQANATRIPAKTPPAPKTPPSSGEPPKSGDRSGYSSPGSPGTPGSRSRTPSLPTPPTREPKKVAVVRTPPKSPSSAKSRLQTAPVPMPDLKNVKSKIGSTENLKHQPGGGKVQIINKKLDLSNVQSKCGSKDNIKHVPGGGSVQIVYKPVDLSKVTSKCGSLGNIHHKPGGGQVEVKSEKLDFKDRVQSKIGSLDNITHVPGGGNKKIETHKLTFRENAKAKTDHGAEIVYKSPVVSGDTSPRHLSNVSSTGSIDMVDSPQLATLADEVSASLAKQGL
T2 sequence (P10636 1-441 isoform P10636-8): as above
T5 sequence (P10636 1-410 isoform P10636-5): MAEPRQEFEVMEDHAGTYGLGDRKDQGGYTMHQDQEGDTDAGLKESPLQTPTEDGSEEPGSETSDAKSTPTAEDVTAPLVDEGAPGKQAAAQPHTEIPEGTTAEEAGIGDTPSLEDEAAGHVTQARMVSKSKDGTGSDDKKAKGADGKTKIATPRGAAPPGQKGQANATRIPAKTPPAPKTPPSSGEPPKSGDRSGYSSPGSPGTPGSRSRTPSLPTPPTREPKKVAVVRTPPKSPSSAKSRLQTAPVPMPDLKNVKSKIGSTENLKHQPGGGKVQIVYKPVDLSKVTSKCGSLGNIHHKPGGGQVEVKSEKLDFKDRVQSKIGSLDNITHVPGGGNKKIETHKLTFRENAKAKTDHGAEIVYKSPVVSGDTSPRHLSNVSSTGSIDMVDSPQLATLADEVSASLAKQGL
Chain of Ca2+ channel (L, dihydropyridine site) (P22002 whole entry): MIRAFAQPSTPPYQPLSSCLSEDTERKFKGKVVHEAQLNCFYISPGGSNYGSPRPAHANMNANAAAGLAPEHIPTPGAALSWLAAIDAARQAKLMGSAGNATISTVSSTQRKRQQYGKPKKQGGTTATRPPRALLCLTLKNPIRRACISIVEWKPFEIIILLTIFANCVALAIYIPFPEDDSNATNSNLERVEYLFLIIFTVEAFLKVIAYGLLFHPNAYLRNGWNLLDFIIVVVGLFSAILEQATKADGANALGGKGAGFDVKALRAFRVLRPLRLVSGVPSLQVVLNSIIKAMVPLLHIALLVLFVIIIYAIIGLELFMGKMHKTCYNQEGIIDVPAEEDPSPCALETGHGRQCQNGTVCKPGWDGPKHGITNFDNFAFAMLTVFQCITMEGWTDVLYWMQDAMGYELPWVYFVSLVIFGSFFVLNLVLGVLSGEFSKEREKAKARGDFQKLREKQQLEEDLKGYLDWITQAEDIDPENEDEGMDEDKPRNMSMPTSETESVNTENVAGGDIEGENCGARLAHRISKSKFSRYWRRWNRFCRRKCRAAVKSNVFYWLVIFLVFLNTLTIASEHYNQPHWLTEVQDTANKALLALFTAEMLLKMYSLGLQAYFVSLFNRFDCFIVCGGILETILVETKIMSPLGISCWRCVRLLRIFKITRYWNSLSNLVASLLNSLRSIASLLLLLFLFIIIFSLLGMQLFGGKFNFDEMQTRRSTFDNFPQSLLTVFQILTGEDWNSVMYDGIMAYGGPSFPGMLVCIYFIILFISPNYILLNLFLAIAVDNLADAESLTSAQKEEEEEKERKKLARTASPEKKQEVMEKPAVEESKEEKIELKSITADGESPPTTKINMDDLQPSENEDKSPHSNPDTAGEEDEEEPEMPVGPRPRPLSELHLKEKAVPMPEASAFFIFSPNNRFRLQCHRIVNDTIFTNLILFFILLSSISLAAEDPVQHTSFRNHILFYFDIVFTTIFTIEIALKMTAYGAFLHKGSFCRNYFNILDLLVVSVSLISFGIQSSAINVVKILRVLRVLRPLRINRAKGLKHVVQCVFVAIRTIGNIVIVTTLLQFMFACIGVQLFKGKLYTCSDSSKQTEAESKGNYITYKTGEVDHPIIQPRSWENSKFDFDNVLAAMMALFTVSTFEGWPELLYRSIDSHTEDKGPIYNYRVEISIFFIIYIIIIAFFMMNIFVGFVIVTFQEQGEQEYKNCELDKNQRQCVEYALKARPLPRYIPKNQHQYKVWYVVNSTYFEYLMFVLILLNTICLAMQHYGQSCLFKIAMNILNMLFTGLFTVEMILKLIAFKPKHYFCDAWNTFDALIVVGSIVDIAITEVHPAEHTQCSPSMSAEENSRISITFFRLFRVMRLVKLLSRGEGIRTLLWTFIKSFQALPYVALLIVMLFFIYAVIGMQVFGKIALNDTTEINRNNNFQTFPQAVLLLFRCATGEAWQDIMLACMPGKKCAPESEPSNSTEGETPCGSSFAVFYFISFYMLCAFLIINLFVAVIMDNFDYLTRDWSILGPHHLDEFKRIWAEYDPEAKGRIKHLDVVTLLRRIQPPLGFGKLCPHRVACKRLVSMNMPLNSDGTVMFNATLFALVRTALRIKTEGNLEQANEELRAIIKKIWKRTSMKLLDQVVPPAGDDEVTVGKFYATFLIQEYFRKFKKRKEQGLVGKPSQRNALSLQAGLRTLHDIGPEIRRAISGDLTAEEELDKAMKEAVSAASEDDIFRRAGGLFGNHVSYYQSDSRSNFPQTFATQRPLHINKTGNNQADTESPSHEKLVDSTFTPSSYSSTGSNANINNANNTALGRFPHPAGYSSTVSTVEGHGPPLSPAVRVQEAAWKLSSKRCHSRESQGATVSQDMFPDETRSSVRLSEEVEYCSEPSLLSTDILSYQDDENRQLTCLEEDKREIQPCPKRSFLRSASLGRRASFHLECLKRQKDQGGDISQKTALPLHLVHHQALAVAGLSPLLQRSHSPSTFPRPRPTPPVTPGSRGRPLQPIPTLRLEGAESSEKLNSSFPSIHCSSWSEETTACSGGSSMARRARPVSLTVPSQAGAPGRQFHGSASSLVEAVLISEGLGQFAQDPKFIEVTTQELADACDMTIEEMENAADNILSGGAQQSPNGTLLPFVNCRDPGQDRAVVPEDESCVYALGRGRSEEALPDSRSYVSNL
Chain of GR (h) (P04150 whole entry): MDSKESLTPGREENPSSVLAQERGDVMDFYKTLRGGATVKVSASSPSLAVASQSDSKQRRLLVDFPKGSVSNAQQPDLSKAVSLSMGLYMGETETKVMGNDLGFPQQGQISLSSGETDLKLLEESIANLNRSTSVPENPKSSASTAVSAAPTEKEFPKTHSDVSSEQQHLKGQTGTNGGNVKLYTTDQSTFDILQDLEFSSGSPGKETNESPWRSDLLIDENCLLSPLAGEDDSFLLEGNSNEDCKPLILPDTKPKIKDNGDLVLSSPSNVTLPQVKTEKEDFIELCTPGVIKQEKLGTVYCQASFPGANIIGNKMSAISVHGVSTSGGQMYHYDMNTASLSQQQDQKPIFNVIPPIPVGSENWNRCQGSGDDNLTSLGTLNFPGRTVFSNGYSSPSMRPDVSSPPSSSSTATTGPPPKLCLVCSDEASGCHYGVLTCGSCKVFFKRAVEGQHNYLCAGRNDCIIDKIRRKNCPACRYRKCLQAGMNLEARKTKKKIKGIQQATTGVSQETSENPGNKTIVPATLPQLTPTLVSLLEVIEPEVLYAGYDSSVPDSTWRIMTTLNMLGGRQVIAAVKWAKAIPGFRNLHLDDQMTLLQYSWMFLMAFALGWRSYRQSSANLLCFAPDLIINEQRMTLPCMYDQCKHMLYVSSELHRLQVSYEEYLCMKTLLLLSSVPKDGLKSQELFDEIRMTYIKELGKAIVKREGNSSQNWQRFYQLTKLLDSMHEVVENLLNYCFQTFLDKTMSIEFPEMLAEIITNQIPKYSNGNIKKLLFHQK
Chain of M2 (h) (P08172 whole entry): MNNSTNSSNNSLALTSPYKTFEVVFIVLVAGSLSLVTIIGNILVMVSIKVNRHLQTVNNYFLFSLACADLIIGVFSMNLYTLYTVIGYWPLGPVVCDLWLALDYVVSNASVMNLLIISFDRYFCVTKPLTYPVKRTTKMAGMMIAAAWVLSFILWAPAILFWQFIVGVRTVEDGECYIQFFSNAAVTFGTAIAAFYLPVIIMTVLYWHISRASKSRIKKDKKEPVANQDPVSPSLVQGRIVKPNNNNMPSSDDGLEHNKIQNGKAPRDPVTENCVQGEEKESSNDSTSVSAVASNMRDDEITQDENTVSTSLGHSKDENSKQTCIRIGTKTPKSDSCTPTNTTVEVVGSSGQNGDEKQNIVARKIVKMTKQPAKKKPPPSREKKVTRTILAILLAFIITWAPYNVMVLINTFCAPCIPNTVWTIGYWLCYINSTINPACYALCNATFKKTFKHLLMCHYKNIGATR
Chain of D1 (h) (P21728 whole entry): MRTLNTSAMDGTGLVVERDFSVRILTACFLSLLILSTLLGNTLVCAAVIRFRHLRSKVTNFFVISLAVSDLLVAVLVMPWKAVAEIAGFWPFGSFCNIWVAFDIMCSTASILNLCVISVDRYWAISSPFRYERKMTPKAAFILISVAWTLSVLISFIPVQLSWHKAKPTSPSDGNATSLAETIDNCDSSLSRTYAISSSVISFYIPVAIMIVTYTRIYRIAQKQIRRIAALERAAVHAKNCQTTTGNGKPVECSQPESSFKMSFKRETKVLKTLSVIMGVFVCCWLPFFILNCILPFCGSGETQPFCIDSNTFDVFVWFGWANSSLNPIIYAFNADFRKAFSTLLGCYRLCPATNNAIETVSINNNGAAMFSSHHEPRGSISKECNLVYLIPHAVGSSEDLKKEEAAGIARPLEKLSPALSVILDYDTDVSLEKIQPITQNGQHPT

C[C@@H]1O[C@@H](O[C@H]2C[C@@H](O)[C@]3(CO)[C@H]4[C@H](O)C[C@]5(C)[C@@H](C6=CC(=O)OC6)CC[C@]5(O)[C@@H]4CC[C@]3(O)C2)[C@H](O)[C@H](O)[C@H]1O [ouabain]
IC50 (ATPase (Na+/K+)): 569 nM

CC(C)(C)[C@]1(O)CCN2C[C@H]3c4ccccc4CCc4cccc(c43)[C@@H]2C1 [butaclamol]
nH (D2L (h)): 0.9951

CCN(CC)CC#CCOC(=O)C(O)(c1ccccc1)C1CCCCC1 (stereo not drawn) [Oxybutynin]
nH (CYP2C19): 0.7474

O[C@H]1CCN(c2ccc(-c3cc4ccc(F)cc4[nH]3)cn2)C1 [Compound 9, reference compound]
Ki [1]: 11 nM
Ki [2]: 8.9 nM
Ki [3]: 10 nM
Ki [4]: 11 nM
Ki [5]: 33 nM
Ki [6]: 37 nM
Ki [7]: 15 nM
Ki [8]: 40 nM

C[N+]1(C)CCC(OC(=O)C(c2ccccc2)c2ccccc2)CC1.[I-] [Compound 4-DAMP]
nH (M3 (h)): 1.577
nH (M4 (h)): 1.959
nH (M5 (h)): 1.178
IC50 (M5 (h); read-out: Concurrent IC50): 2.35 nM
Ki (M5 (h); read-out: Concurrent Ki): 1.17 nM

CCOC(=O)C1=C(C)NC(C)=C(C(=O)OC)C1c1cccc([N+](=O)[O-])c1 (stereo not drawn) [nitrendipine]
nH, Specific binding [9]: 1.077

COc1ccc2[nH]cc(CCNC(C)=O)c2c1 [melatonin]
nH, Specific binding (MT1 (ML1A) (h)): 1.177

Ro 41-0960
IC50 [10]: 23 nM

C[C@@H]1C[C@H]2[C@@H]3CCC4=CC(=O)C=C[C@]4(C)[C@@]3(F)[C@@H](O)C[C@]2(C)[C@@]1(O)C(=O)CO [dexamethasone]
nH (GR (h)): 1.051

CN1CCc2cc(Cl)c(O)cc2[C@@H](c2ccccc2)C1 [SCH 23390]
nH (D1 (h)): 1.03

COc1ccccc1CNCCCCCCNCCCCCCCCNCCCCCCNCc1ccccc1OC [methoctramine]
nH (M2 (h)): 1.382

N=C(N)N/N=C/c1c(Cl)cccc1Cl [guanabenz]
nH, Specific binding [11]: 1.024

C=C[C@H]1C[N@@]2CC[C@H]1C[C@@H]2[C@@H](O)c1ccnc2ccc(OC)cc12 [Quinidine]
nH (CYP2D6): 0.9681

Fc1ccc2cc(-c3cnc(N4CCOCC4)nc3)[nH]c2c1 [Compound 8]
Ki [1]: 8.4 nM
Ki [2]: 13 nM
Ki [3]: 7.7 ± 0.6 nM
Ki [4]: 8.5 ± 1.2 nM
Ki [12]: ~15 nM and 15 nM
Ki [13]: ~15 nM and 15 nM
Ki [14]: ~24 nM and 24 nM
Ki [15]: 11 nM
Ki [16]: 11 ± 1.3 nM
Ki [17]: 22 nM
Ki [18]: 18 nM
Ki [19]: 16 nM
Ki [20]: 19 nM

COc1cc(C(=O)OCCCN2CCCN(CCCOC(=O)c3cc(OC)c(OC)c(OC)c3)CC2)cc(OC)c1OC [Dilazep]
nH, Specific binding [21]: 1.337

Cc1nc2c([nH]1)c(=O)n(C)c(=O)n2Cc1ccco1 [Furafylline]
nH (CYP1A2): 0.9709
